The values below come from patent US20190225647A1, “ANTIGENIC PEPTIDES FOR THE DIAGNOSIS, THERAPY MONITORING AND/OR TREATMENT OF PSORIASIS VULGARIS” (Ludwig-Maximilians-Universität München, priority 2015, published 2019).

Experiment [1] concerns CD8+ T cells from psoriasis patients. Put plainly: Staining of PBMC from psoriasis patients with FITC-labelled HLA-C*06:02-peptide dextramers. It counts as binding, human. The conditions noted are these: flow cytometry. On the procedure: We used FITC-labelled HLA-C*06:02-peptide dextramers to stain CD8^+ T cells from psoriasis patients. […] Thus, the peptides can be used in complex with HLA-C dextramers to address autoreactive T cells in blood of psoriasis patients. • Autoantigenic peptides complexed with HLA-C*06:02-multimers can be used to identify autoreactive CD8^+ T cells in psoriasis. […]
Fluorescent dextramers were prepared of HLA-C*06:02 and antigenic or control peptides. […] PBMC from psoriasis patients were incubated with standard dilutions of the HLA-C*06:02-peptide dextramers and a phycoerythrin-labelled CD8 antibody and the frequency of double stained cells subsequently determined by flow cytometry on a FACScan flow cytometer. Data were analyzed by FlowJo software 887.
(In general: In flow cytometry, cells or beads pass a laser one at a time.)

For the next experiment, the system named is HLA-class I. It counts as cell-based. The settings on record: HLA-C*06:02-positive primary human melanocytes preincubated with IFN-γ. From the text:
When assessing the results given below, however, it needs to be considered that the percentage of activated i.e. green-fluorescing cells in this complex cell-based recombinant assay may differ between different experiments. It may be influenced by the stability of the respective hybridoma cell batch and, in co-culture experiments, by the quantitative ratio of stimulatory and hybridoma cells, which decides the probability of cell-cell contacts (Siewert et al., 2011).
We isolated primary melanocytes from the skin and seeded them in explant culture. Cell type was confirmed by the contents of brownish melanosomes and staining with a p75-specific antibody against melanocytes. […] This effect was further enhanced, when HLA-C*06:02-positive melanocytes were preincubated with interferon (IFN)-γ, which increases the expression of HLA-class I molecules (FIG. 2C). […] TCR-hybridoma activation was HLA-restricted.
(B) TCR-hybridoma activation by HLA-C*06:02-positive (left) or HLA-C*06:02-negative (right) primary human melanocytes (MC) in the absence or presence of IFN-γ or a HLA-class I blocking antibody. Frequency of NFAT-sGFP^+ hybridoma cells was assessed by flow cytometry and normalized to the maximum value induced by CD3 activation in the same experiment. […]

Take “VRHDGGNVL [unrelated peptide (Falk et al., 1993), HLA-C*06:02 ligand, negative control complexed with HLA-C*06:02-dextramers]”: in experiment [1], the “staining / binding of CD8+ blood T cells by HLA-C*06:02-peptide dextramers” value is given as “did not bind”.

B1: IFN-γ: interferon-γ, increases the expression of HLA-class I molecules (protein, UniProt P01579 24-161, looked up)
Interferon gamma: QDPYVKEAENLKKYFNAGHSDVADNGTLFLGILKNWKEESDRKIMQSQIVSFYFKLFKNFKDDQSIQKSVETIKEDMNVKFFNSNKKKRDDFEKLTNYSVTDLNVQRKAIHELIQVMAELSPAAKTGKRKRSQMLFRG
On to B1, for which the “effect of IFN-γ addition on TCR-hybridoma activation” value in the experiment with HLA-class I was “increased”.
